How the values were obtained:
C. parvum = assay: DNA replication assay (EdU incorporation); type: cell-based, Cryptosporidium parvum; conditions: 10 mM, positive control
From the text: Following cell invasion, Cryptosporidium trophozoites grow and multiply to give rise to multinucleated type I meronts (Fig. 3a). The thymidine analog 5-ethynyl-2′-deoxyuridine (EdU) is efficiently incorporated into newly synthesized DNA, and can be detected using click chemistry. We used EdU to measure parasite intracellular DNA replication, as a surrogate for the more complex phenotype of intracellular growth and division. The approach for differentially labeling newly synthesized parasite DNA compared to host cell DNA was to take advantage of the fact that C. parvum replicates more quickly than the nearly confluent host cells. Thus, by adding EdU shortly before egress, it was possible to preferentially label replicating parasites (Fig. 3b, c). DNA staining with Hoechst labeled all of the host and parasite DNA, making it challenging to visualize and quantify parasite DNA. A simple DNA stain would also not distinguish pre-existing DNA from newly synthesized DNA (Fig. 3c). In contrast, EdU labeling only occurred with incorporation into newly synthesized DNA. Incorporated EdU was then easily stained for immunofluorescence and labeled parasites were quantified using high-content microscopy and an NIH ImageJ macro (Fig. 3c, DMSO condition). The […] hydroxyurea (10 mM), a known inhibitor of DNA replication, was used as a positive control for assay validation. […] Compounds with activity in this assay cannot be concluded to specifically target DNA replication, which is a complex phenotype.
Confluent HCT-8 cell monolayers in glass bottom plates were infected with C. parvum, and compounds were added at EC90 following invasion. At 9 h post-infection, 10 µM EdU was added, followed by incubation for another 2 h, and then washing, fixing, and staining for microscopy. […] 40 × dry objective (NA = 0.7); scale = 5 µm. Arrows indicate selected parasites with EdU-labeled DNA. d Quantification of EdU incorporation. […] Data are mean and SD of 2–5 biological replicates.
After incubation of cells with EdU for 2 h, cells were washed 3 times with PBS-D-gal and then fixed with PBS containing 4% PFA. Cells were then permeabilized and stained for EdU using the Click-iT® assay kit (Thermo Fisher Scientific, catalog# C10340) as per the manufacturer’s instructions. Cells were then imaged by focusing on parasites (note that the host cell nuclei are in a different focal plane) using a 40 × dry objective (0.7 NA) and EdU, and lectin numbers quantified using ImageJ software and the custom macro in Supplementary Method 1.

[1] = tested on: HCT-8 cell DNA replication; assay: Host cell DNA replication (EdU labeling); type: cell-based, human; conditions: 10 mM, positive control

NC(=O)NO [hydroxyurea]
effect on parasite DNA replication (C. parvum): blocked both parasite and HCT-8 cell DNA replication
effect on HCT-8 cell DNA replication [1]: blocked both parasite and HCT-8 cell DNA replication

From PMC6478823, “A suite of phenotypic assays to ensure pipeline diversity when prioritizing drug-like Cryptosporidium growth inhibitors” (Nature Communications, 2019)
